One data set concerns the target PARG (Homo sapiens, UniProt Q86W56). Description: Biochemical assay (PARG, TFMU-ADPr substrate). Conditions: PARG, TFMU-ADPr substrate.
A further data set deals with HCC1806. Description: Cell viability assay (CellTiter-Glo). In kind it is cell-based, Human. Conditions: Homo sapiens, HCC1806, 168 h, HCC1806, 7 days, CellTiter-Glo; read-out: IC50 (nM) in cell viability assay. For orientation: In ATP-based viability assays light output follows the ATP content of the culture.
A further data set addresses T1, PXR (Homo sapiens, UniProt O75469).
T1 construct: host or cells: DPX2 (HepG2)
T1 sequence (O75469 1-434): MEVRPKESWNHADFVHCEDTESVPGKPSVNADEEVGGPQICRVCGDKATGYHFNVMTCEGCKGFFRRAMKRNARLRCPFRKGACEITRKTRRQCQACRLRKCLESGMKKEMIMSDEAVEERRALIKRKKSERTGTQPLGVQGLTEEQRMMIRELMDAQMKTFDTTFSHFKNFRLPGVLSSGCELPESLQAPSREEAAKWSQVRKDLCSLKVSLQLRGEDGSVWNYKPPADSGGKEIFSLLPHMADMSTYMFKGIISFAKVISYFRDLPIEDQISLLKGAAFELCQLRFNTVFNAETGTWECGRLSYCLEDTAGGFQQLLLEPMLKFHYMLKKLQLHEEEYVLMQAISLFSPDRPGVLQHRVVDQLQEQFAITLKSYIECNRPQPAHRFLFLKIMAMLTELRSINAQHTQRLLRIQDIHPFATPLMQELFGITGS
Description: PXR assay (DPX2 luciferase reporter cells). The format is cell-based. Conditions: 24 h; for PXR Activation @30 uM (% Ctrl): positive control rifampicin. How it is done: 1) Information of Cell Line
DPX2 (HepG2 cells stably transfected with PXR and luciferase reporter) cells were purchased from Puracyp Inc (Carlsbad, CA).
2) Experimental Procedures a) Reagents and Consumables
The DPX2 cells were cultured in the growth medium containing 1000 fetal bovine serum. The DPX2 cells in a T-75 flask were cultured in the […] incubator at 37° C. with 950% relative humidity, and digested when the cells grew to cover 80-90% of the bottom of the flask.
The surface layer of the T-75 cultured cells was washed with 10 mL of PBS; PBS was pipetted; 3-5 mL of tryp sin was added; the cells were digested at 37° C. for 5 minutes or until the cells were digested to be suspended; and excessive medium containing fetal bovine serum was added to stop trypsinization. The cell suspension was transferred to a conical-bottomed centrifuge tube and centrifuged at 150 g rpm for 5 minutes at room temperature; the supernatant was carefully pipetted; and the cells were resuspended with the treatment medium, with the concentration adjusted to 3.2×10^5 cells/mL (incubation time: 24 hours, plate seeding density: […]). 25 μL of the cell suspension was added to each well of the 384-well cell culture plate.
The cell culture plate was placed and cultured for 24 h in the […] incubator with 9500 humidity at 37° C. c) Formulation of Compound
The stock solution of each of 1000× test compound, the positive control (rifampicin), and the negative control (propranolol) was prepared with DMSO. The final concentrations of the positive control (rifampicin) were 1 μM and 10 μM, and the final concentration of the negative control (propranolol) was 10 μM. The final concentrations of the test compound were 10 μM, 1 μM, 0.1 μM, or EC50 (30 μM, 10 μM, 3 μM, 1 μM, 0.3 μM, 0.1 μM). The final concentration of DMSO was 0.10. The cell culture plate was taken out from the incubator, and 25 nL of the stock solution of the positive control, negative control or test compound was directly added with Echo, each with three parallel concentrations. The cell culture plate was placed in the incubator and continued to be incubated for 24 h. Before starting the assay with the substrate, the cell morphology and the monolayer integrity were checked to ensure that the monolayer was of acceptable research quality. […]
d) Quantitative Detection with PXR Activation
After 24 hours of dosing, the culture could be quantitatively detected with PXR activation. The CellTiter-Fluor™ Cell Viability Assay Kit and One-Glo Luciferase reagent were equilibrated to room temperature. The GF-AFC substrate (10 μL) was added to the assay buffer (10 ml) to develop a 2× reagent, which was then diluted into a 1× reagent with 10 ml of PBS. The ONE-Glo Luciferase substrate was added to the ONE-Glo Luciferase assay buffer. The culture plate was taken out from the incubator; the medium was discarded; 1× of CellTiter-Fluor™ reagent was poured into the loading slot; 25 μL of reagent were added per well to the culture plate with a pipetting workstation; and the culture plate was then incubated in the incubator for 30 minutes. The cell culture plate was taken out from the incubator, and cooled slightly to room temperature; and the fluorescence value was determined with a fully automatic quantitative microplate reader, with the excitation light of 400 nm and the emission light of 505 nm. The ONE-Glo reagent was poured into the loading slot, with 25 μL per well, and the resulting mixture was gently mixed in the plate, and incubated at room temperature for 5 minutes to determine the luminescence value.
Background: A reporter such as luciferase makes a cellular process visible.

Experimental findings from US20260258035A1, “FIVE-MEMBERED AND SIX-MEMBERED NITROGEN-CONTAINING COMPOUND, AND INTERMEDIATE, PREPARATION METHOD AND USE THEREOF” (HANGZHOU SYNRX THERAPEUTICS BIOMEDICAL TECHNOLOGY CO., LTD., priority 2022, published 2026) are described below.

As usually defined, the IC50 is the concentration that inhibits the measured activity by half.

Each structure is given as a SMILES string.

Sequence of PARG (Q86W56 whole entry): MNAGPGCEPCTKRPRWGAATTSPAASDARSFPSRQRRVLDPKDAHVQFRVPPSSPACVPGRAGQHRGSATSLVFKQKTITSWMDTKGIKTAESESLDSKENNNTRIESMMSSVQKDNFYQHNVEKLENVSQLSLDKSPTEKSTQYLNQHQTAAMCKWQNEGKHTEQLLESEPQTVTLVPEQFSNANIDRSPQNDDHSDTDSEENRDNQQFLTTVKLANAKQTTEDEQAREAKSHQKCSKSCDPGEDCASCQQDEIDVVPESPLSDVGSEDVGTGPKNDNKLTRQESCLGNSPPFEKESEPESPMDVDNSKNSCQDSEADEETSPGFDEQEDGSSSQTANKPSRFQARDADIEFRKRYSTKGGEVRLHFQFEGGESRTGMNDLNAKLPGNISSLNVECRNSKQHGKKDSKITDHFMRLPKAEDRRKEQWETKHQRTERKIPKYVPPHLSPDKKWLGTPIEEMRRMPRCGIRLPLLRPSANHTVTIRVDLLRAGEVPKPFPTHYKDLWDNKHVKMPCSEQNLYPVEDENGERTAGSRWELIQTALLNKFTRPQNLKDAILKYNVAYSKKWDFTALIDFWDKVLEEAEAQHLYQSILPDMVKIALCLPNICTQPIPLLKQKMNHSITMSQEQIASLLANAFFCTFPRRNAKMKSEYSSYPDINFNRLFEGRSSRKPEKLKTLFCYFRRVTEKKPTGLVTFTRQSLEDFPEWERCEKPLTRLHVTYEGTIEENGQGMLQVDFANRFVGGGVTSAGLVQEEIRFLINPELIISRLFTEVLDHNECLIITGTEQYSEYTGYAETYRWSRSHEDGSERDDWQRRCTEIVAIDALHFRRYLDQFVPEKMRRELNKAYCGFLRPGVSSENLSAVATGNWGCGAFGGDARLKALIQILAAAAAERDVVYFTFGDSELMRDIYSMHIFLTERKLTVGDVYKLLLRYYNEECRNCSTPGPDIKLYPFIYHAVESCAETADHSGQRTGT

As to `CN1CCC1(C)C(=O)N1CCN(c2cc(S(=O)(=O)NC3(C)CC3)cn3c(-c4nnc(C(F)(F)F)s4)ncc23)CC1` (stereo not shown) [Example 330, 8-(4-(1,2-dimethylazetidine-2-carbonyl)piperazin-1-yl)-N-(1-methylcyclopropyl)-3-(5-(trifluoromethyl)-1,3,4-thiadiazol-2-yl)imidazo[1,5-a]pyridine-6-sulfonamide], the half-inhibitory concentration (IC50) against PARG amounted to 6.55 nM. In the data set with HCC1806, the IC50 came to 194 nM. At PXR, the “PXR Activation @30 uM (Fold)” value stood at 1.3 Fold and the “PXR Activation @30 uM (% Ctrl)” value stood at 9 % Ctrl.

As to `CC1(NS(=O)(=O)c2cc(N3CCN(C(=O)[C@@H]4CCN4)CC3)c3cnc(-c4nnc(C(F)(F)F)s4)n3c2)CC1` [Example 284, (S)-8-(4-(azetidine-2-carbonyl)piperazin-1-yl)-N-(1-methylcyclopropyl)-3-(5-(trifluoromethyl)-1,3,4-thiadiazol-2-yl)imidazo[1,5-a]pyridine-6-sulfonamide], the IC50 against PARG was 16.6 nM. The IC50 in the data set with HCC1806 worked out at 310 nM. Moreover, at PXR, the “PXR Activation @30 uM (Fold)” value is on record as 1.1 Fold and the “PXR Activation @30 uM (% Ctrl)” value was 7 % Ctrl.

With `CN1CC[C@H]1C(=O)N1CCN(c2cc(S(=O)(=O)NC3(C)CC3)cn3c(-c4nnc(C(F)(F)F)s4)ncc23)CC1` [Example 285, (S)-8-(4-(1-methylazetidine-2-carbonyl)piperazin-1-yl)-N-(1-methylcyclopropyl)-3-(5-(trifluoromethyl)-1,3,4-thiadiazol-2-yl)imidazo[1,5-a]pyridine-6-sulfonamide], the IC50 against PARG was found to be 20 nM. In addition, in the data set on HCC1806, the IC50 worked out at 246 nM. Further, on PXR, the “PXR Activation @30 uM (Fold)” value is reported as 1.7 Fold and the “PXR Activation @30 uM (% Ctrl)” value is reported as 10 % Ctrl.

Compound `CC1(NS(=O)(=O)c2cc(N3CCN(C(=O)[C@H]4CCCN4)CC3)c3cnc(-c4nnc(C(F)(F)F)s4)n3c2)CC1` [Example 324, (R)-N-(1-methylcyclopropyl)-8-(4-prolylpiperazin-1-yl)-3-(5-(trifluoromethyl)-1,3,4-thiadiazol-2-yl)imidazo[1,5-a]pyridine-6-sulfonamide] gave an IC50 on PARG of 4.29 nM. In addition, the half-maximal inhibitory concentration (IC50) in the data set on HCC1806 came to 205 nM. Further, on PXR, the “PXR Activation @30 uM (Fold)” value came out at 1.8 Fold and the “PXR Activation @30 uM (% Ctrl)” value is 14 % Ctrl.

Regarding `CN1CC[C@@H]1C(=O)N1CCN(c2cc(S(=O)(=O)NC3(C)CC3)cn3c(-c4nnc(C(F)(F)F)s4)ncc23)CC1` [Example 287, (R)-8-(4-(1-methylazetidine-2-carbonyl)piperazin-1-yl)-N-(1-methylcyclopropyl)-3-(5-(trifluoromethyl)-1,3,4-thiadiazol-2-yl)imidazo[1,5-a]pyridine-6-sulfonamide], at PARG, inhibition was half-maximal at 4.37 nM (IC50). The IC50 with HCC1806 was 137 nM. At PXR, the “PXR Activation @30 uM (Fold)” value was 1.6 Fold and the “PXR Activation @30 uM (% Ctrl)” value is 15 % Ctrl.

In the case of `N#CC1(NS(=O)(=O)c2cc(N3CCN(C(=O)c4ccncc4)CC3)c3cnc(-c4nnc(C(F)(F)F)s4)n3c2)CC1` [Example 254, N-(1-cyanocyclopropyl)-8-(4-isonicotinoylpiperazin-1-yl)-3-(5-(trifluoromethyl)-1,3,4-thiadiazol-2-yl)imidazo[1,5-a]pyridine-6-sulfonamide], the IC50 on PARG worked out at 11.5 nM; with HCC1806, 700 nM. Further, the “PXR Activation @30 uM (Fold)” value at PXR is 1.6 Fold. For the same compound, at PXR, the “PXR Activation @30 uM (% Ctrl)” value was determined as 12 % Ctrl.

In the case of `COC1(C(=O)N2CCN(c3cc(S(=O)(=O)NC4(C)CC4)cn4c(-c5nnc(C(F)F)s5)ncc34)CC2)CNC1` [Example 311, 3-(5-(difluoromethyl)-1,3,4-thiadiazol-2-yl)-8-(4-(3-methoxyazetidine-3-carbonyl)piperazin-1-yl)-N-(1-methylcyclopropyl)imidazo[1,5-a]pyridine-6-sulfonamide], inhibition on PARG was half-maximal at 0.21 nM (IC50). Further, in the data set on HCC1806, the half-maximal inhibitory concentration (IC50) amounted to 234 nM. In addition, on PXR, the “PXR Activation @30 uM (Fold)” value is 1.1 Fold and the “PXR Activation @30 uM (% Ctrl)” value was found to be 5 % Ctrl.

At PARG, `COC1(C(=O)N2CCN(c3cc(S(=O)(=O)NC4(C)CC4)cn4c(-c5nnc(C(F)(F)F)s5)ncc34)CC2)CC1` [Example 193, 8-(4-(1-methoxycyclopropane-1-carbonyl)piperazin-1-yl)-N-(1-methylcyclopropyl)-3-(5-(trifluoromethyl)-1,3,4-thiadiazol-2-yl)imidazo[1,5-a]pyridine-6-sulfonamide] showed an IC50 of 0.36 nM. Moreover, the IC50 in the data set with HCC1806 was found to be 5.76 nM. Moreover, at PXR, the “PXR Activation @30 uM (Fold)” value came to 2.4 Fold and the “PXR Activation @30 uM (% Ctrl)” value was determined as 15 % Ctrl.

In turn, `C[C@H]1CN(c2cc(S(=O)(=O)NC3(C)COC3)cn3c(-c4nnc(C(F)F)s4)ncc23)C[C@H](C)N1` [Example 179, 3-(5-(difluoromethyl)-1,3,4-thiadiazol-2-yl)-8-((3S,5S)-3,5-dimethylpiperazin-1-yl)-N-(3-methyloxetan-3-yl)imidazo[1,5-a]pyridine-6-sulfonamide] returned an IC50 against PARG of 0.35 nM. For the same compound, the IC50 in the data set with HCC1806 was found to be 24 nM. On PXR, the “PXR Activation @30 uM (Fold)” value is listed as 3.2 Fold and the “PXR Activation @30 uM (% Ctrl)” value came out at 22 % Ctrl.

As to `CC1(NS(=O)(=O)c2cc(N3CCN(c4ccc[nH]c4=O)CC3)c3cnc(-c4nnc(C(F)(F)F)s4)n3c2)CC1` [Example 336, N-(1-methylcyclopropyl)-8-(4-(2-oxo-1,2-dihydropyridin-3-yl)piperazin-1-yl)-3-(5-(trifluoromethyl)-1,3,4-thiadiazol-2-yl)imidazo[1,5-a]pyridine-6-sulfonamide], the IC50 on PARG came out at 54.1 nM. Further, in the data set on HCC1806, the IC50 stood at 1080 nM. At PXR, the “PXR Activation @30 uM (Fold)” value turned out to be 0.3 Fold and the “PXR Activation @30 uM (% Ctrl)” value was 2 % Ctrl.
